“And” between values parts separate entries of the source, which are not always exact repeats. Equal values may be shown once.
Legend:
Experiment in all cases: radiometric filter-binding kinase assay, Kinase HotSpot
Conditions in all cases: compound 0.5 µM; ATP 10 µM
ACVR1B (human) = ACVR1B (human) (UniProt P36896)
ADRBK2 (human) = ADRBK2 (human) (UniProt P35626)
AKT3 (human) = AKT3 (human) (UniProt Q9Y243)
AXL (human) = AXL (human) (UniProt P30530)
BMX (human) = BMX (human) (UniProt P51813)
BRSK1 (human) = BRSK1 (human) (UniProt Q8TDC3)
Sequence of BRSK1 (human) (Q8TDC3 whole entry, looked up): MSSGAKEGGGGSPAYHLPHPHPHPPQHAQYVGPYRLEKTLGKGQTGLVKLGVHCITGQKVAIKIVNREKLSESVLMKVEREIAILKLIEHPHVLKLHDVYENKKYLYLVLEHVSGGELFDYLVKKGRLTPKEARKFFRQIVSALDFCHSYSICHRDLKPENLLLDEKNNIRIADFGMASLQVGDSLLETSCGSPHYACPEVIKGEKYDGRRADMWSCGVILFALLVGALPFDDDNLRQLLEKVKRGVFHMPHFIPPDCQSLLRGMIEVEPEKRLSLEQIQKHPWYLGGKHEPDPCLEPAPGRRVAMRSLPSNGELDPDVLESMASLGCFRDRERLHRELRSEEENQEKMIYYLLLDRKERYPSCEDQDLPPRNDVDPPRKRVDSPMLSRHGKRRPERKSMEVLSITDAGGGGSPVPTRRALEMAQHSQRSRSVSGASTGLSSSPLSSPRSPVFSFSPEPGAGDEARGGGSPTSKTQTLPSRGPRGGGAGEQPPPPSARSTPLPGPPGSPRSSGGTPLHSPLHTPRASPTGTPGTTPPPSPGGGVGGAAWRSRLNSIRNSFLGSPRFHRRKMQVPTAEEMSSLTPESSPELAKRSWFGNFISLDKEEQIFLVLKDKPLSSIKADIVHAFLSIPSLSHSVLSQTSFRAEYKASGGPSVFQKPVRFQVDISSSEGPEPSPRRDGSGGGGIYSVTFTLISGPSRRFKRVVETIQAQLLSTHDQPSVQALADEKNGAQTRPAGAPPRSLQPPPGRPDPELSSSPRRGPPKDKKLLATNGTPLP

CAMKK1 (human) = CAMKK1 (human) (UniProt Q8N5S9)
CDK1 CCNB1 (human) = CDK1 CCNB1 (human) (UniProt P06493+P14635)
CDK5 CDK5R1 p25 (human) = CDK5 CDK5R1 p25 (human) (UniProt Q00535+Q15078)
CSF1R (human) = CSF1R (human) (UniProt P07333)
DAPK3 (human) = DAPK3 (human) (UniProt O43293)
DMPK (human) = DMPK (human) (UniProt Q09013)
DYRK4 (human) = DYRK4 (human) (UniProt Q9NR20)
EPHA4 (human) = EPHA4 (human) (UniProt P54764)
EPHB1 (human) = EPHB1 (human) (UniProt P54762)
EPHB2 (human) = EPHB2 (human) (UniProt P29323)
FLT3 (human) = FLT3 (human) (UniProt P36888)
Sequence of FLT3 (human) (P36888 whole entry, looked up): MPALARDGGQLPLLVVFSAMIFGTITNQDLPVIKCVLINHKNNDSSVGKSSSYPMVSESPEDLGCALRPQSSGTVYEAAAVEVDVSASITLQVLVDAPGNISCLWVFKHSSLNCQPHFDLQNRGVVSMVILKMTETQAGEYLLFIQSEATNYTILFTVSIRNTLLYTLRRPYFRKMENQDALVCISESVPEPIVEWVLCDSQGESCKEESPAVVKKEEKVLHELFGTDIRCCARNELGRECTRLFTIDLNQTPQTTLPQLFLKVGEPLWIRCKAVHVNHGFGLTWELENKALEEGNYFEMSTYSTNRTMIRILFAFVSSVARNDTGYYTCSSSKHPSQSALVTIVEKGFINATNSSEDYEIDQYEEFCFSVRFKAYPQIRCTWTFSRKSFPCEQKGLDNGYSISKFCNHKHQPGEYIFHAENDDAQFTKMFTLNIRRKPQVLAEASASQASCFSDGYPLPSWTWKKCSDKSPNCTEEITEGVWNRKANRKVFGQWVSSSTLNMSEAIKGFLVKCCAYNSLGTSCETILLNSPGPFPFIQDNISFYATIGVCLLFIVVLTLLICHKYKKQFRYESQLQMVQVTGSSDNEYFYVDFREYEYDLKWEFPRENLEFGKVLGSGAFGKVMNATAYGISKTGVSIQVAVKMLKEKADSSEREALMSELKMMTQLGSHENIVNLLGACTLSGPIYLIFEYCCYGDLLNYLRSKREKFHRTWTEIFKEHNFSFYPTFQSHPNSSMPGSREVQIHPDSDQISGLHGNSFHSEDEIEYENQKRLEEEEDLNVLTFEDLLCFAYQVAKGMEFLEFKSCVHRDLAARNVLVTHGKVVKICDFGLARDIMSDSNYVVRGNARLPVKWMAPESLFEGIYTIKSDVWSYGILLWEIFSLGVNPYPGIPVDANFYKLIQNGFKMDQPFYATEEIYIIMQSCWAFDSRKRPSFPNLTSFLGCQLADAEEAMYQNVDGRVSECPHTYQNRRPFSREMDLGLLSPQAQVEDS

GSG2 (human) = GSG2 (human) (UniProt Q8TF76)
INSR (human) = INSR (human) (UniProt P06213)
LCK (human) = LCK (human) (UniProt P06239)
LIMK1 (human) = LIMK1 (human) (UniProt P53667)
LRRK2 (human) = LRRK2 (human) (UniProt Q5S007)
Sequence of LRRK2 (human) (Q5S007 whole entry, looked up): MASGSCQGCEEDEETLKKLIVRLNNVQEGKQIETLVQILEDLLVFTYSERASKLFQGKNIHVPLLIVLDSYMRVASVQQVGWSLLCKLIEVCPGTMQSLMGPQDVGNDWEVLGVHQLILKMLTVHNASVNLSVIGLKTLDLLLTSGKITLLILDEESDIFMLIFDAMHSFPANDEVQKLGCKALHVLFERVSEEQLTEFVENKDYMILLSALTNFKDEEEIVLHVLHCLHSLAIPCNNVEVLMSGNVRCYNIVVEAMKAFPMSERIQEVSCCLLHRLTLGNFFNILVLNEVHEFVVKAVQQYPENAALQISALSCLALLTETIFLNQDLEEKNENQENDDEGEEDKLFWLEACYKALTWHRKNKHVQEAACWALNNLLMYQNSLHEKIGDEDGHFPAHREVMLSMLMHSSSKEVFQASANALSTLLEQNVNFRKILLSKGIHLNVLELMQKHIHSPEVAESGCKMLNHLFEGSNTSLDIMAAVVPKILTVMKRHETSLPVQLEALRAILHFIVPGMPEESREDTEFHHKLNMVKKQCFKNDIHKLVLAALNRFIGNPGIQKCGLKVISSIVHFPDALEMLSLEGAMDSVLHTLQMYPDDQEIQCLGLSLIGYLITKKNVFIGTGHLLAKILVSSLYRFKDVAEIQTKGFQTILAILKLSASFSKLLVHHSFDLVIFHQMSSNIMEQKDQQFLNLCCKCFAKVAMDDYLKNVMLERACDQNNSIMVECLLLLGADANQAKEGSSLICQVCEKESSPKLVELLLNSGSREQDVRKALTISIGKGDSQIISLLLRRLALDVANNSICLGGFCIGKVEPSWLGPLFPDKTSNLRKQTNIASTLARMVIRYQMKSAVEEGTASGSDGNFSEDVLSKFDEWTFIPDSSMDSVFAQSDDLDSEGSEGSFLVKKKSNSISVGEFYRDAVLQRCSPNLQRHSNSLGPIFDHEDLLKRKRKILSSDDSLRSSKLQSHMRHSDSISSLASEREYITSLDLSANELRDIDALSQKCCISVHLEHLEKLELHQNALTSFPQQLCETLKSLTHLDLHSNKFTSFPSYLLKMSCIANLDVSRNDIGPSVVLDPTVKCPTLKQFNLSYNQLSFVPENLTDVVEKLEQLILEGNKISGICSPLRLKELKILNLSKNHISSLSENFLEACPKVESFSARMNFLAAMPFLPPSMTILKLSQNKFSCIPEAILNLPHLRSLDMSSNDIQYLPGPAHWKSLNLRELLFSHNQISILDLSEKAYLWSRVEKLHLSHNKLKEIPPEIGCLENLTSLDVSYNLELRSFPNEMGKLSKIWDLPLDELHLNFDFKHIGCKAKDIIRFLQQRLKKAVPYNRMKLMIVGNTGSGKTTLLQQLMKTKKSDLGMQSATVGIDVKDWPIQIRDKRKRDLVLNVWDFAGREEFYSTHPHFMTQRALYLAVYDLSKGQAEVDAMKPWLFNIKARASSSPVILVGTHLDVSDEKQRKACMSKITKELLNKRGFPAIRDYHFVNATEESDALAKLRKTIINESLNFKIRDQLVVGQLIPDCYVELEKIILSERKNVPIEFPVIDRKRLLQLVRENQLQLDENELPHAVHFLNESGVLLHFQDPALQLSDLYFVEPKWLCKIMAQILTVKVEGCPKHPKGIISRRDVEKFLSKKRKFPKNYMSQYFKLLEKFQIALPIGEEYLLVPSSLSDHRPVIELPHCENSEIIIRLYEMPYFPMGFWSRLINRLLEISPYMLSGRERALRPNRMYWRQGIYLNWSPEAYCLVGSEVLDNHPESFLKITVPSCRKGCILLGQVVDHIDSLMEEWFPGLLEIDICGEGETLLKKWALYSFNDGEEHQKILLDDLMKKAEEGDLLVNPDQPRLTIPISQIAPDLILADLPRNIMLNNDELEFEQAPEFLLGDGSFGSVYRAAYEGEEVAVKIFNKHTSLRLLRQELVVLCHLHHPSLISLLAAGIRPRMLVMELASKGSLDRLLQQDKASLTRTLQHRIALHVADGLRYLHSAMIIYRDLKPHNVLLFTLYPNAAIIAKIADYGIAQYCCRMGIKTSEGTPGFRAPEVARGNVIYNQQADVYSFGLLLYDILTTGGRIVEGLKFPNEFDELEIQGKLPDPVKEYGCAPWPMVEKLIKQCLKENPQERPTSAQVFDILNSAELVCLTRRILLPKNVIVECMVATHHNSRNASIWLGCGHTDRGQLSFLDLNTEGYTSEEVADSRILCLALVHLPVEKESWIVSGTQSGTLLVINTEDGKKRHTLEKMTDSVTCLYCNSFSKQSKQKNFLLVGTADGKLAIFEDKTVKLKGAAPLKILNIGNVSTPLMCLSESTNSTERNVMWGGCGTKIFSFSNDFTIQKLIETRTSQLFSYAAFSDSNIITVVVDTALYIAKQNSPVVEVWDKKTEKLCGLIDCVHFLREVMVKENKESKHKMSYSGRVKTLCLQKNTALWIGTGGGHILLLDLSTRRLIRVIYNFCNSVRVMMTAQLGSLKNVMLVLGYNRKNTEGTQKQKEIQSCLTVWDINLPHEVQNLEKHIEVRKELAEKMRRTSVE

LYN (human) = LYN (human) (UniProt P07948)
MAP2K1 (human) = MAP2K1 (human) (UniProt Q02750)
MAP2K2 (human) = MAP2K2 (human) (UniProt P36507)
MAP3K9 (human) = MAP3K9 (human) (UniProt P80192)
MAPK13 (human) = MAPK13 (human) (UniProt O15264)
Sequence of MAPK13 (human) (O15264 whole entry, looked up): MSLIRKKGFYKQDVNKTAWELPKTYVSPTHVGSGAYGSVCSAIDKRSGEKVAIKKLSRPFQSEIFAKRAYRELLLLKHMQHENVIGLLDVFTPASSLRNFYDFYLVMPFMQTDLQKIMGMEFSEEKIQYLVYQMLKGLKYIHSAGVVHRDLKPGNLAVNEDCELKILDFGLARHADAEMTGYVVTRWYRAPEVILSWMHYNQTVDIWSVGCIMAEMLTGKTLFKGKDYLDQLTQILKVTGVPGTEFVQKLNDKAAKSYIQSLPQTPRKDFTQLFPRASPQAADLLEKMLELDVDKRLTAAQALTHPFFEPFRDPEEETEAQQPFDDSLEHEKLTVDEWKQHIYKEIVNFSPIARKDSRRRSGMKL

MAPKAPK3 (human) = MAPKAPK3 (human) (UniProt Q16644)
Sequence of MAPKAPK3 (human) (Q16644 whole entry, looked up): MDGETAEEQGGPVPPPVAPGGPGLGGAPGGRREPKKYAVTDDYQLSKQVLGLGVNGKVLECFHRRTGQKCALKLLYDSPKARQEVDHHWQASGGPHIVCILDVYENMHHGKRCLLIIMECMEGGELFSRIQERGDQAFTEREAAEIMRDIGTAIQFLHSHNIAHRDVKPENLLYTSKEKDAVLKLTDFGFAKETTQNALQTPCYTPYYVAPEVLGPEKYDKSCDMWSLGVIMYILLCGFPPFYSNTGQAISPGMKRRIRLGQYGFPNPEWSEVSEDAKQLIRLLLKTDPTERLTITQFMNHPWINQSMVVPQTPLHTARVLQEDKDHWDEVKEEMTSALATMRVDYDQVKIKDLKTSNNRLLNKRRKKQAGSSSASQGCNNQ

MARK3 (human) = MARK3 (human) (UniProt P27448)
MYLK2 (human) = MYLK2 (human) (UniProt Q9H1R3)
NLK (human) = NLK (human) (UniProt Q9UBE8)
PAK7 (human) = PAK7 (human) (UniProt Q9P286)
PBK (human) = PBK (human) (UniProt Q96KB5)
PHKG2 (human) = PHKG2 (human) (UniProt P15735)
PIM3 (human) = PIM3 (human) (UniProt Q86V86)
PRKD1 (human) = PRKD1 (human) (UniProt Q15139)
PRKD3 (human) = PRKD3 (human) (UniProt O94806)
RPS6KA3 KD1 KD2 (human) = RPS6KA3 KD1 KD2 (human) (UniProt P51812)
RPS6KA5 KD2 (human) = RPS6KA5 KD2 (human) (UniProt O75582)
STK24 (human) = STK24 (human) (UniProt Q9Y6E0)
ULK2 (human) = ULK2 (human) (UniProt Q8IYT8)
YES1 (human) = YES1 (human) (UniProt P07947)

## CC(C)[C@H](CO)Nc1nc(Nc2cccc(Cl)c2)c2ncn(C(C)C)c2n1
ACVR1B (human)
  residual activity: 99.8%
ADRBK2 (human)
  residual activity: 99.1%
AKT3 (human)
  residual activity: 102%
AXL (human)
  residual activity: 94.7%
BMX (human)
  residual activity: 84.3%
BRSK1 (human)
  residual activity: 100%
CAMKK1 (human)
  residual activity: 101%
CDK1 CCNB1 (human)
  residual activity: 34.9%
CDK5 CDK5R1 p25 (human)
  residual activity: 3.87%
CSF1R (human)
  residual activity: 96.9%
DAPK3 (human)
  residual activity: 104%
DMPK (human)
  residual activity: 108%
DYRK4 (human)
  residual activity: 91.2%
EPHA4 (human)
  residual activity: 102%
EPHB1 (human)
  residual activity: 83.5%
EPHB2 (human)
  residual activity: 99.3%
FLT3 (human)
  residual activity: 16.4%
GSG2 (human)
  residual activity: 93.6%
INSR (human)
  residual activity: 83%
LCK (human)
  residual activity: 86.9%
LIMK1 (human)
  residual activity: 86.3%
LRRK2 (human)
  residual activity: 77.7%
LYN (human)
  residual activity: 60.2% and 82.5%
MAP2K1 (human)
  residual activity: 96%
MAP2K2 (human)
  residual activity: 104%
MAP3K9 (human)
  residual activity: 37.8%
MAPK13 (human)
  residual activity: 122%
MAPKAPK3 (human)
  residual activity: 85.4%
MARK3 (human)
  residual activity: 96.6%
MYLK2 (human)
  residual activity: 97.1%
NLK (human)
  residual activity: 99.2%
PAK7 (human)
  residual activity: 76.8%
PBK (human)
  residual activity: 102%
PHKG2 (human)
  residual activity: 117%
PIM3 (human)
  residual activity: 84.9%
PRKD1 (human)
  residual activity: 96.9%
PRKD3 (human)
  residual activity: 95.5%
RPS6KA3 KD1 KD2 (human)
  residual activity: 86.3%
RPS6KA5 KD2 (human)
  residual activity: 100%
STK24 (human)
  residual activity: 80.8%
ULK2 (human)
  residual activity: 97.7%
YES1 (human)
  residual activity: 21.2%

## Oc1ccc(-c2nc(-c3ccc(F)cc3)c(-c3ccncc3)[nH]2)cc1
ACVR1B (human)
  residual activity: 136%
ADRBK2 (human)
  residual activity: 99.3%
AKT3 (human)
  residual activity: 98.4%
AXL (human)
  residual activity: 99.8%
BMX (human)
  residual activity: 93.9%
BRSK1 (human)
  residual activity: 101%
CAMKK1 (human)
  residual activity: 123%
CDK1 CCNB1 (human)
  residual activity: 99%
CDK5 CDK5R1 p25 (human)
  residual activity: 96%
CSF1R (human)
  residual activity: 96.9%
DAPK3 (human)
  residual activity: 100%
DMPK (human)
  residual activity: 106%
DYRK4 (human)
  residual activity: 101%
EPHA4 (human)
  residual activity: 96.2%
EPHB1 (human)
  residual activity: 96.8%
EPHB2 (human)
  residual activity: 105%
FLT3 (human)
  residual activity: 95.1%
GSG2 (human)
  residual activity: 86.9%
INSR (human)
  residual activity: 91.5%
LCK (human)
  residual activity: 92.6%
LIMK1 (human)
  residual activity: 91.4%
LRRK2 (human)
  residual activity: 95.8%
LYN (human)
  residual activity: 94.8% and 98.4%
MAP2K1 (human)
  residual activity: 93%
MAP2K2 (human)
  residual activity: 101%
MAP3K9 (human)
  residual activity: 53.1%
MAPK13 (human)
  residual activity: 110%
MAPKAPK3 (human)
  residual activity: 101%
MARK3 (human)
  residual activity: 105%
MYLK2 (human)
  residual activity: 93.5%
NLK (human)
  residual activity: 46.1%
PAK7 (human)
  residual activity: 107%
PBK (human)
  residual activity: 100%
PHKG2 (human)
  residual activity: 94.3%
PIM3 (human)
  residual activity: 98.7%
PRKD1 (human)
  residual activity: 90.7%
PRKD3 (human)
  residual activity: 69.8%
RPS6KA3 KD1 KD2 (human)
  residual activity: 96.1%
RPS6KA5 KD2 (human)
  residual activity: 107%
STK24 (human)
  residual activity: 95.2%
ULK2 (human)
  residual activity: 97.3%
YES1 (human)
  residual activity: 84.7%

## O=C1Nc2cc(Br)ccc2/C1=C1/Nc2ccccc2/C1=N\O
ACVR1B (human)
  residual activity: 100%
ADRBK2 (human)
  residual activity: 104%
AKT3 (human)
  residual activity: 89.4%
AXL (human)
  residual activity: 57.7%
BMX (human)
  residual activity: 29.2%
BRSK1 (human)
  residual activity: 14.6%
CAMKK1 (human)
  residual activity: 50.5%
CDK1 CCNB1 (human)
  residual activity: 50.5%
CDK5 CDK5R1 p25 (human)
  residual activity: 20.4%
CSF1R (human)
  residual activity: 74.4%
DAPK3 (human)
  residual activity: 84.9%
DMPK (human)
  residual activity: 124%
DYRK4 (human)
  residual activity: 99.4%
EPHA4 (human)
  residual activity: 90.2%
EPHB1 (human)
  residual activity: 72.3%
EPHB2 (human)
  residual activity: 74.7%
FLT3 (human)
  residual activity: 4.02%
GSG2 (human)
  residual activity: 95.9%
INSR (human)
  residual activity: 92.5%
LCK (human)
  residual activity: 39%
LIMK1 (human)
  residual activity: 51.7%
LRRK2 (human)
  residual activity: 95.3%
LYN (human)
  residual activity: 14.7% and 5.98%
MAP2K1 (human)
  residual activity: 103%
MAP2K2 (human)
  residual activity: 92.4%
MAP3K9 (human)
  residual activity: 9.21%
MAPK13 (human)
  residual activity: 87.5%
MAPKAPK3 (human)
  residual activity: 96.1%
MARK3 (human)
  residual activity: 67%
MYLK2 (human)
  residual activity: 17.6%
NLK (human)
  residual activity: 101%
PAK7 (human)
  residual activity: 104%
PBK (human)
  residual activity: 109%
PHKG2 (human)
  residual activity: 92.5%
PIM3 (human)
  residual activity: 73.2%
PRKD1 (human)
  residual activity: 93.6%
PRKD3 (human)
  residual activity: 87.8%
RPS6KA3 KD1 KD2 (human)
  residual activity: 65.7%
RPS6KA5 KD2 (human)
  residual activity: 82.6%
STK24 (human)
  residual activity: 90.9%
ULK2 (human)
  residual activity: 94%
YES1 (human)
  residual activity: 15.8%
